From ChEMBL document CHEMBL1145078, “Discovery and preclinical characterization of (+)-3-[4-(1- piperidinoethoxy)phenyl]spiro[indene- 1,1'-indane]-5,5'-diol hydrochloride: a promising nonsteroidal estrogen receptor agonist for hot flush” (J Med Chem, 2003)

Species on record: Rattus norvegicus
Experiment: Dose required to prevent loss of total bone mineral density of rat distal femur
Format: functional

Cl.Oc1ccc2c(c1)CCC21C=C(c2ccc(OCCN3CCCCC3)cc2)c2cc(O)ccc21 (single isomer, unassigned; (+))
Dose: 0.1 mg/kg/day
